What all share (assay): cAMP accumulation
Common to all, as to type: cell-based, human
Holding throughout (conditions): Table S4, mean ± SEM
In general terms: cAMP levels reflect the balance of adenylyl cyclase and phosphodiesterase activity.

Experiment [1] relates to SV1 K118A. The procedure: (§1) GHRH-stimulated cAMP accumulation was measured by a LANCE Ultra cAMP kit (PerkinElmer). Briefly, HEK293T cells (24 h after transfection with SV1 or GHRHR) or prostate cancer cells were digested by 0.2% (wt/vol) EDTA and washed once with Dulbecco’s phosphate-buffered saline (PBS). Cells were then resuspended with stimulation buffer (Hanks’ balanced salt solution [HBSS] supplemented with 5 mM HEPES, 0.5 mM IBMX, and 0.1% [wt/vol] bovine serum albumin [BSA], pH 7.4) to a density of 0.6 million cells per milliliter and added to 384-well white plates (3,000 cells per well). […] The reaction was stopped by adding 5 μL Eu-cAMP tracer and 5 μL ULight-anti-cAMP. After 1 h RT incubation, TR-FRET signals (excitation: 320 nm, emission: 615 and 665 nm) were measured by an Envision plate reader (PerkinElmer). cAMP concentrations were interpolated by a standard curve.
(§2) All functional study data were analyzed using Prism 7 (GraphPad) and presented as means ± SEM from at least three independent experiments. Concentration-response curves were evaluated with a three-parameter logistic equation. The significance was determined with either two-tailed Student’s t test or one-way ANOVA, and P < 0.05 is considered statistically significant.
(§3) Table S4. Effects of residue mutation in the ligand-binding pocket of SV1 on GHRH-induced cAMP […]
(§4) Mutant pEC50 Emax Cell surface expression ΔLog (τ/KA)
(§5) (% WT GHRHR) (% WT GHRHR) cAMP accumulation data were analyzed using a three-parameter logistic equation to determine pEC50 and Emax values. pEC50 is the negative logarithm of the molar concentration of agonist that induced half the maximal response. Emax for mutants is expressed as a percentage of the WT GHRHR. Data were analyzed by nonlinear regression using the operational model equation to determine t he logR values (logτ/KA, i.e., logarithm of the transduction ratio). τ is the effi cacy value of the agonist and was corrected by cell surface expression of the receptor. KA is dissociation constant. Changes in transduction ratio (ΔlogR) were calculated to determine the relative effectiveness of the mutants. All values are means ± S.E.M. of four independent experiments (n = 4) conducted in quadruplicate. Statistical analysis was carried out by comparing the control responses in the WT-SV1. *, P < 0.05, **, P < 0.01 and ***, P < 0.001, determined by one-way

The subject of experiment [2] is SV1 H146A. The procedure: as §1, §2, §3, §4, §5
Experiment [3] relates to SV1 I225A. How it is done: as §1, §2, §3, §4, §5
The subject of experiment [4] is SV1 K66A. How it is done: as §1, §2, §3, §4, §5
Experiment [5] has as its system SV1 V65A. How it is done:
as §1, §2, §3, §4, §5

The mark [6] stands for this setting: HEK293T, LANCE Ultra cAMP, 30 min RT, 0.5 mM IBMX, n = 4 in quadruplicate.
Where [7] appears, read: HEK293T, n = 4 in quadruplicate.
The mark [8] stands for this setting: operational model, τ corrected by cell surface expression, n = 4.

In the case of `CC[C@H](C)[C@H](NC(=O)[C@H](C)NC(=O)[C@H](CC(=O)O)NC(=O)[C@H](C)NC(=O)[C@@H](N)Cc1ccc(O)cc1)C(=O)N[C@@H](Cc1ccccc1)C(=O)N[C@H](C(=O)N[C@@H](CC(N)=O)C(=O)N[C@@H](CO)C(=O)N[C@@H](Cc1ccc(O)cc1)C(=O)N[C@@H](CCCNC(=N)N)C(=O)N[C@@H](CCCCN)C(=O)N[C@H](C(=O)N[C@@H](CC(C)C)C(=O)NCC(=O)N[C@@H](CCC(N)=O)C(=O)N[C@@H](CC(C)C)C(=O)N[C@@H](CO)C(=O)N[C@@H](C)C(=O)N[C@@H](CCCNC(=N)N)C(=O)N[C@@H](CCCCN)C(=O)N[C@@H](CC(C)C)C(=O)N[C@@H](CC(C)C)C(=O)N[C@@H](CCC(N)=O)C(=O)N[C@@H](CC(=O)O)C(=O)N[C@H](C(=O)N[C@@H](CCSC)C(=O)N[C@@H](CO)C(=O)N[C@@H](CCCNC(=N)N)C(=O)N[C@@H](CCC(N)=O)C(=O)N[C@@H](CCC(N)=O)C(=O)NCC(=O)N[C@@H](CCC(=O)O)C(=O)N[C@@H](CO)C(=O)N[C@@H](CC(N)=O)C(=O)N[C@@H](CCC(N)=O)C(=O)N[C@@H](CCC(=O)O)C(=O)N[C@@H](CCCNC(=N)N)C(=O)NCC(=O)N[C@@H](C)C(=O)N[C@@H](CCCNC(=N)N)C(=O)N[C@@H](C)C(=O)N[C@@H](CCCNC(=N)N)C(=O)N[C@@H](CC(C)C)C(N)=O)[C@@H](C)CC)C(C)C)[C@@H](C)O` [GHRH, growth hormone–releasing hormone], the “pEC50 of cAMP accumulation” value in experiment [1] (setting [6]) is 4.61 ± 0.12; in experiment [2] (setting [6]), 5.07 ± 0.08; in experiment [3] (setting [6]) it was 4.98 ± 0.12; in experiment [4] (setting [6]), 5.60 ± 0.08; in experiment [5] (setting [6]) it was 5.33 ± 0.09. For the same compound, the “Emax of cAMP accumulation” value stood at 92.40 ± 7.25 % WT GHRHR in experiment [1] (setting [7]); 101.06 ± 4.83 % WT GHRHR in experiment [2] (setting [7]); 76.03 ± 5.48 % WT GHRHR in experiment [3] (setting [7]); 106.82 ± 4.09 % WT GHRHR in experiment [4] (setting [7]); 106.08 ± 4.91 % WT GHRHR in experiment [5] (setting [7]). The “ΔLog (τ/KA)” value is given as -4.51 ± 0.13 in experiment [1] (setting [8]); -4.64 ± 0.11 in experiment [2] (setting [8]); -3.85 ± 0.13 in experiment [3] (setting [8]); -4.02 ± 0.11 in experiment [4] (setting [8]); -4.08 ± 0.12 in experiment [5] (setting [8]).

The values are drawn from PMC8501799, “Constitutive signal bias mediated by the human GHRHR splice variant 1” (Proceedings of the National Academy of Sciences of the …, 2021).
